Test results: paper PMC7960626, “Phase I study assessing the mass balance, pharmacokinetics, and excretion of [^14C]-pevonedistat, a NEDD8-activating enzyme inhibitor in patients with advanced solid tumors” (Investigational New Drugs, 2020)
Where two headings read alike, the source gives them in different places.

Experiments:
advanced solid tumors = test system: advanced solid tumors; parameters: method as in PMID 29781056; conditions: cited from earlier work
[1] = Safety (TEAEs) of pevonedistat days 1, 3, 5 plus carboplatin/paclitaxel or docetaxel in 3-week cycles (part B); assay type: in vivo, human; conditions: for On-study deaths, patients: part B, Total (N = 7)
Procedure: This was a two-part (A and B), open-label, multicenter, mass balance, distribution, metabolism, excretion (DME) study in adult patients with advanced solid tumors. In part A, patients received a single IV infusion of [^14C]-pevonedistat 25 mg/m^2 (containing approximately 60–85 µCi, or 2.22–3.145 MBq, of total radioactivity) at a single center (Duna Medical Center, Budapest, Hungary). Patients were required to stay at the part A study site for approximately 8 days or until the discharge criteria were met, with a maximum estimated confinement period of 9–14 days. Upon completion of part A, patients had the option to participate in part B at Medical Center Hungarian Defense Forces, Budapest, Hungary. In part B, patients received treatment in 3-week cycles with either: pevonedistat 20 mg/m^2 on days 1, 3, and 5 plus carboplatin AUC5 and paclitaxel 175 mg/m^2 on day 1; or pevonedistat 25 mg/m^2 on days 1, 3, and 5 plus docetaxel 75 mg/m^2 on day 1. Treatment was administered for 12 cycles or until discontinuation criteria were met.
Blood samples were collected for total radioactivity and PK assessments in whole blood and plasma at prespecified time points (pre dose [within 1 h before the start of the pevonedistat infusion], end of infusion, then 0.5, 1, 2, 3, 4, 8, 12, 24, 48, 72, 96, 120, 144 and 168 hours post dose). Complete urinary and fecal output were collected for analysis of PK (urine) and total radioactivity (urine and feces) throughout the confinement period until discharge criteria were met. Bioanalytical assay methods are shown in the Supplementary Methods. Safety was assessed by incidence and severity of TEAEs, vital signs, physical examinations, electrocardiograms, and clinical laboratory tests, and toxicities were graded according to the National Cancer Institute Common Terminology Criteria for Adverse Events (NCI CTCAE), version 4.03. In part B, disease assessments were conducted using radiological evaluations (computed tomography [CT] scan or magnetic resonance imaging [MRI], as clinically indicated).
PK data were summarized using descriptive statistics, and the PK and mass balance parameters described in Supplementary Table S1 were calculated by non-compartmental analysis for each individual patient. Safety was assessed in all patients who received at least one dose of pevonedistat, and TEAEs were coded according to the Medical Dictionary for Regulatory Activities (MedDRA), version 20.0. Analysis of efficacy in part B was descriptive; disease response was assessed in all patients who received at least one dose of pevonedistat, had measurable disease (per entry criteria for part B), and had at least one post-baseline disease assessment. Response assessment was done by the investigator using Response Evaluation Criteria in Solid Tumors (RECIST) version 1.1. SAS version 9.4 was used for all statistical analyses.

[2] = test system: tumor cell lines including solid tumors (colon, lung) and hematological malignancies (myeloma, lymphoma); parameters: method as in PMID 19509147, PMID 20525923, PMID 20203261; conditions: preclinical studies; cited from earlier work
[3] = in combination with carboplatin plus paclitaxel
[4] = human, in vivo, 12 3-week cycles

Structure (SMILES): NS(=O)(=O)OC[C@@H]1C[C@@H](n2ccc3c(N[C@H]4CCc5ccccc54)ncnc32)C[C@@H]1O [Pevonedistat]
- maximum tolerated dose (MTD) (advanced solid tumors; [3]): 20 mg/m^2
- overall response rate [ORR] (advanced solid tumors; [3]): 35%
- maximum tolerated dose (MTD) (advanced solid tumors; in combination with docetaxel): 25 mg/m^2
- overall response rate [ORR] (advanced solid tumors; in combination with docetaxel): 16%
- Abdominal distension, All Grades ([1]; human, in vivo): 1 (14.3) n (%)
- Abdominal distension, Grade ≥ 3 ([1]; human, in vivo): 0 n (%)
- Abdominal pain upper, All Grades ([1]; human, in vivo): 1 (14.3) n (%)
- Abdominal pain upper, Grade ≥ 3 ([1]; human, in vivo): 0 n (%)
- Abdominal pain, All Grades ([1]; human, in vivo): 1 (14.3) n (%)
- Abdominal pain, Grade ≥ 3 ([1]; human, in vivo): 0 n (%)
- Alopecia, All Grades ([1]; human, in vivo): 1 (14.3) n (%)
- Alopecia, Grade ≥ 3 ([1]; human, in vivo): 0 n (%)
- Arthralgia, All Grades ([1]; human, in vivo): 1 (14.3) n (%)
- Arthralgia, Grade ≥ 3 ([1]; human, in vivo): 0 n (%)
- Asthenia, All Grades ([1]; human, in vivo): 3 patients (42.9%) n (%)
- Back pain, All Grades ([1]; human, in vivo): 1 (14.3) n (%)
- Back pain, Grade ≥ 3 ([1]; human, in vivo): 0 n (%)
- Blood bilirubin increased, All Grades ([1]; human, in vivo): 1 (14.3) n (%)
- Blood bilirubin increased, Grade ≥ 3 ([1]; human, in vivo): 0 n (%)
- Blood creatinine increased, All Grades ([1]; human, in vivo): 1 (14.3) n (%)
- Blood creatinine increased, Grade ≥ 3 ([1]; human, in vivo): 0 n (%)
- Blood urea increased, All Grades ([1]; human, in vivo): 1 (14.3) n (%)
- Blood urea increased, Grade ≥ 3 ([1]; human, in vivo): 0 n (%)
- Bone pain, All Grades ([1]; human, in vivo): 1 (14.3) n (%)
- Bone pain, Grade ≥ 3 ([1]; human, in vivo): 0 n (%)
- Chest pain, All Grades ([1]; human, in vivo): 1 (14.3) n (%)
- Chest pain, Grade ≥ 3 ([1]; human, in vivo): 0 n (%)
- Chills, All Grades ([1]; human, in vivo): 1 (14.3) n (%)
- Chills, Grade ≥ 3 ([1]; human, in vivo): 0 n (%)
- Conjunctival hemorrhage, All Grades ([1]; human, in vivo): 1 (14.3) n (%)
- Conjunctival hemorrhage, Grade ≥ 3 ([1]; human, in vivo): 0 n (%)
- Diarrhea, All Grades ([1]; human, in vivo): 3 patients (42.9%) n (%)
- Dyspnea, All Grades ([1]; human, in vivo): 1 (14.3) n (%)
- Dyspnea, Grade ≥ 3 ([1]; human, in vivo): 0 n (%)
- Edema peripheral, All Grades ([1]; human, in vivo): 1 (14.3) n (%)
- Edema peripheral, Grade ≥ 3 ([1]; human, in vivo): 0 n (%)
- Fibrosarcoma, All Grades ([1]; human, in vivo): 1 (14.3) n (%)
- Fibrosarcoma, Grade ≥ 3 ([1]; human, in vivo): 1 (14.3) n (%)
- General physical health deterioration, All Grades ([1]; human, in vivo): 1 (14.3) n (%)
- General physical health deterioration, Grade ≥ 3 ([1]; human, in vivo): 1 (14.3) n (%)
- Grade ≥ 3 drug-related decreased platelet count ([1]; human, in vivo): 1 patient
- Grade ≥ 3 drug-related increased ALT and AST ([1]; human, in vivo): 1 patient
- Leukocytosis, All Grades ([1]; human, in vivo): 1 (14.3) n (%)
- Leukocytosis, Grade ≥ 3 ([1]; human, in vivo): 0 n (%)
- Leukopenia, All Grades ([1]; human, in vivo): 1 (14.3) n (%)
- Leukopenia, Grade ≥ 3 ([1]; human, in vivo): 0 n (%)
- Mueller’s mixed tumor, All Grades ([1]; human, in vivo): 1 (14.3) n (%)
- Mueller’s mixed tumor, Grade ≥ 3 ([1]; human, in vivo): 0 n (%)
- Nausea, All Grades ([1]; human, in vivo): 3 patients (42.9%) n (%)
- Pain, Grade ≥ 3 ([1]; human, in vivo): 0 n (%)
- Peripheral venous disease, All Grades ([1]; human, in vivo): 1 (14.3) n (%)
- Peripheral venous disease, Grade ≥ 3 ([1]; human, in vivo): 0 n (%)
- Platelet count decreased, All Grades ([1]; human, in vivo): 1 (14.3) n (%)
- Platelet count decreased, Grade ≥ 3 ([1]; human, in vivo): 1 (14.3) n (%)
- Pneumonia, All Grades ([1]; human, in vivo): 1 (14.3) n (%)
- Pneumonia, Grade ≥ 3 ([1]; human, in vivo): 1 (14.3) n (%)
- Pyrexia, All Grades ([1]; human, in vivo): 2 (28.6) n (%)
- Pyrexia, Grade ≥ 3 ([1]; human, in vivo): 0 n (%)
- Rash, All Grades ([1]; human, in vivo): 1 (14.3) n (%)
- Rash, Grade ≥ 3 ([1]; human, in vivo): 0 n (%)
- Serious TEAEs, patients ([1]; human, in vivo): Three patients (42.9%) n (%)
- Spinal compression fracture, All Grades ([1]; human, in vivo): 1 (14.3) n (%)
- Spinal compression fracture, Grade ≥ 3 ([1]; human, in vivo): 0 n (%)
- Swelling, All Grades ([1]; human, in vivo): 1 (14.3) n (%)
- Swelling, Grade ≥ 3 ([1]; human, in vivo): 0 n (%)
- TEAEs, patients ([1]; human, in vivo): 7 n (%)
- TEAEs: Drug-related (any drug of the combination), patients ([1]; human, in vivo): 6 patients (85.7%) n (%)
- TEAEs: Grade ≥ 3, patients ([1]; human, in vivo): Four patients (57.1%) n (%)
- TEAEs: Grade ≥ 3 drug-related, patients ([1]; human, in vivo): 2 n (%)
- Upper respiratory tract infection, All Grades ([1]; human, in vivo): 1 (14.3) n (%)
- Upper respiratory tract infection, Grade ≥ 3 ([1]; human, in vivo): 0 n (%)
- Vomiting, All Grades ([1]; human, in vivo): 4 patients (57.1%) n (%)
- Weight decreased, All Grades ([1]; human, in vivo): 1 (14.3) n (%)
- Weight decreased, Grade ≥ 3 ([1]; human, in vivo): 0 n (%)
- ALT increased, All Grades [1, 4]: 2 (28.6) n (%)
- ALT increased, Grade ≥ 3 [1, 4]: 1 (14.3) n (%)
- AST increased, All Grades [1, 4]: 2 (28.6) n (%)
- AST increased, Grade ≥ 3 [1, 4]: 1 (14.3) n (%)
- Anemia, All Grades [1, 4]: 2 (28.6) n (%)
- Anemia, Grade ≥ 3 [1, 4]: 0 n (%)
- Asthenia, All Grades [1, 4]: 3 (42.9) n (%)
- Asthenia, Grade ≥ 3 [1, 4]: 0 n (%)
- Diarrhea, All Grades [1, 4]: 3 (42.9) n (%)
- Diarrhea, Grade ≥ 3 [1, 4]: 0 n (%)
- Fatigue, All Grades [1, 4]: 2 (28.6) n (%)
- Fatigue, Grade ≥ 3 [1, 4]: 0 n (%)
- Nausea, All Grades [1, 4]: 3 (42.9) n (%)
- Nausea, Grade ≥ 3 [1, 4]: 0 n (%)
- Pain, All Grades [1, 4]: 2 (28.6) n (%)
- Serious TEAEs, patients [1, 4]: 3 (42.9) n (%)
- Serious TEAEs: Drug-related, patients [1, 4]: 0 n (%)
- Serious TEAEs: Resulting in study discontinuation, patients [1, 4]: 1 (14.3) n (%)
- TEAEs, patients [1, 4]: 7 (100.0) n (%)
- TEAEs: Drug-related (any drug of the combination), patients [1, 4]: 6 (85.7) n (%)
- TEAEs: Grade ≥ 3, patients [1, 4]: 4 (57.1) n (%)
- TEAEs: Grade ≥ 3 drug-related, patients [1, 4]: 2 (28.6) n (%)
- TEAEs: Resulting in study drug discontinuation, patients [1, 4]: 1 (14.3) n (%)
- Thrombocytopenia, All Grades [1, 4]: 2 (28.6) n (%)
- Thrombocytopenia, Grade ≥ 3 [1, 4]: 0 n (%)
- Vomiting, All Grades [1, 4]: 4 (57.1) n (%)
- Vomiting, Grade ≥ 3 [1, 4]: 0 n (%)
- Oral herpes, All Grades ([1]; human, in vivo, po): 1 (14.3) n (%)
- Oral herpes, Grade ≥ 3 ([1]; human, in vivo, po): 0 n (%)
- Serious TEAEs: Drug-related, patients ([1]; in vivo): none of which were considered related to treatment
- On-study deaths, patients [1]: 2 (28.6) n (%)
- On-study deaths, patients ([1]; listed as pevonedistat): Two
- antitumor activity in cell lines [2]: growth inhibition
